# Counter-ions that a name gives are not always drawn. Like-named read-outs stand apart in the source and are kept apart here. Marks after values point to notes of the source that are not given here.
# Columns and labels:
# [1] = system: SU-DHL-6 subcutaneous tumours; assay: Survival study in satellite groups of the SU-DHL-6 subcutaneous model; format: in vivo, NOD/SCID mice; settings: long-term treatment, death criterion tumour volume 3000 mm^3 or death
# Method: (§1) To better determine the anti-tumour activity of the PM/HP-β-CD complex, the SU-DHL-6 cell line xenografts were established in immunodeficiency mice. The NOD/SCID mice were subcutaneously inoculated 7 × 10^6 cells per mouse. […] A mimic of HyperCVAD regimen, standard chemotherapy for B cell lymphoma ([22],[23]), especially aggressive subtypes, for example, double-hit lymphoma, was set as a positive control group for comparison (Table 2). Satellite groups were set up in the 10 mg/kg group, 20 mg/kg group, and the Hyper-CVAD group. Animals in the satellite groups were not sacrificed at the end of the treatment and underwent long-term treatment for further investigation. In the survival study, the animal mortality criterion was that the tumour volume reached 3000 mm^3 or the individual animal died, and the animal survival time was statistically analysed.
# [2] = system: SU-DHL-6 cells; assay: Annexin V-FITC/PI flow cytometry apoptosis assay; format: cell-based, human; settings: 48 h
# Method: The pro-apoptotic effect of the PM/HP-β-CD complex on SU-DHL-6 cells was investigated by flow cytometry. […] cells in good condition were collected and inoculated in the six-well plate with 2⋄10^5 cells per well. After being cultured for 24 h, cells were treated with PM and PM/HP-β-CD inclusion at 3 nM and 6 nM, using LBH589 at 6 nM as the positive control. The cells without drug treatment were the negative control. After 48 h incubation, the cells were then processed by annexin V-FITC/PI staining as the manufacturer’s instructions (KeyGen, 100 assays).
# [3] = system: Ki-67; assay: Immunohistochemical detection of Ki-67 in tumour tissue; format: in vivo, NOD/SCID mice; settings: immunostaining after PM treatment, SU-DHL-6 subcutaneous tumour
# Source text: (§2) The proliferation of tumour cells was detected by immune histochemical staining with the primary antibody of Ki-67 (Lab Vision, MA, USA). DNA double-stranded breaks were investigated by staining with the primary antibody of H2A histone family member X (γH2AX, Upstate Biotechnology, Lake Placid, NY, USA). Primary antibodies of acetyl histone H4 (Ac-H4, Upstate Biotechnology, Lake Placid, NY, USA) were used to detect the acetylation of Histone H4. FITC-labelled secondary antibodies (F-0382; Sigma) were applied with a concentration of 1:500. The images were taken with the Nikon E800 scope.
# [4] = system: SU-DHL-6 cells; assay: In vitro cytotoxicity study (MTT); format: cell-based; settings: Homo sapiens, 48 h
# Method: To investigate the anti-tumour proliferation effect of PM/HP-β-CD, in vitro cytotoxicity test was performed. After being seeded with 96-well plates, the in vitro cultured cells were allowed to acclimate for about 1 h. The experimental group was added with 100 μL of medium containing free PM, HP-β-CD, or PM/HP-β-CD with different concentrations, and the control group was added with an equal volume of fresh medium. Each group was set up with 3 parallel holes and a cultured incubator with 5% CO2 at 37 °C. At 48 h, the survival rate of each group was calculated with the MTT method, and the IC50 value was fitted.
# [5] = system: acetyl histone H4 (Ac-H4); assay: Immunohistochemical detection of Ac-H4 in tumour tissue; format: in vivo, NOD/SCID mice; settings: immunostaining after PM treatment, SU-DHL-6 subcutaneous tumour
# Source text: as §2
# [6] = system: γH2AX; assay: Immunohistochemical detection of γH2AX in tumour tissue; format: in vivo, NOD/SCID mice; settings: immunostaining after PM treatment, SU-DHL-6 subcutaneous tumour
# Source text: as §2
# [7] = system: human double-hit lymphoma SU-DHL-6 xenograft tumours; format: in vivo
# Method: as §1
# When the experimental period was over, the tumour was weighed and photographed, the main organs and tumours were collected, fixed, and embedded in paraffin for Histological and immunohistochemical analysis.
# [8] = In vivo pharmacokinetics after oral or intravenous administration; settings: SD rats, 10 mg/kg; for Cmax: read-out: maximum value (Cmax) of plasma concentration
# Method: Adult SD rats (180–220 g) were used to investigate the in vivo kinetics of PM after oral or intravenous administration. The rats were fasted overnight and divided into oral and intravenous groups, containing three male and three female rats in each group. Then, 10 mg/kg of PM was administered in each rat. 0.2 mL of jugular vein blood samples were collected at a predetermined time interval of 0, 5, 15, 30, 60, 120, 240, 360, 480, and 600 min, centrifuged at 1500 rpm for 15 min at 4 °C to separate the plasma, and stored at −80 °C for the analysis by UPLC-MS. After the test, Phoenix WinNonlin software and non-compartmental analysis were used to calculate parameters such as maximum plasma concentration (Cmax), plasma clearance (CL), time to achieve maximum plasma concentration (Tmax), steady-state apparent distribution volume (Vdss), elimination half-life (t1/2), area under the concentration-time curve (AUC), and related bioavailability.
# [9] = system: human double-hit lymphoma SU-DHL-6 cell line xenografts; assay: Oral versus intravenous administration study in SU-DHL-6 xenografts; settings: for Number End/begin / RTV / Tumor Weight (g) X ±SD / Tumor Weight Inhibition (%) / Tumor volume T/C% / animal status / deaths: 16 days; for Body weight (g) X ± SD Begin / Tumor volume (mm^3) X ±SD Begin: begin of treatment; for Body Weight (g) X ±SD End / Tumor volume (mm^3) X ±SD End: end of 16 days treatment; for animal status / deaths: 10 mg/kg
# Method: To determine whether PM is suitable for oral or intravenous administration, the anti-tumor activity and the safety were investigated in a human double-hit lymphoma SU-DHL-6 cell line xenografts established in immunodeficiency mice. Each mouse was injected subcutaneously with 0.1 mL of cell suspension containing 1×10^6 cells. […] Tumor size and body weight were measured during the experimental period and the tumor volumes were calculated according to the formula: volume (mm^3) = length × width^2 × 0.5. When the experimental period was over, all the mice were sacrificed, and the tumor was weighed and photographed.
# [10] = Phase solubility analysis of PM in HP-β-CD solutions; format: physicochemical; settings: inclusion of PM by HP-β-CD
# Method: Excess PM were added into 6 mL HP-β-CD solutions ranged from 0 to 150 mg/mL [14, 19]. The mixture solution was stirred at 1000 rpm for 24 h at 37 °C and filtered using 0.22 μm Millipore filtration. The apparent solubility of PM was calculated, and the stability constant (Ks) was calculated as the Higuchi-Connors equation, Equation (a). The Gibbs free energy (ΔG) was calculated as Equation (b), R represents the general gas constant and T represents the Kelvin temperature. (a) Ks=slope/(S0×(1–slope)) (b) ΔG=−RTlnKs
# [11] = both sexes, rat, plasma, intravenous administration
# [12] = both sexes, rat, plasma, oral administration
# [13] = positive control groups, dose column – (RTX 10 mg/kg), 14 days
# [14] = positive control groups, dose column – (RTX 10 mg/kg), begin of treatment
# [15] = positive control groups, dose column – (RTX 10 mg/kg), end of 14 days treatment
molecule,measurement,setting,value
"CN(Cc1nc2c(N3CCOCC3)nc(-c3ccc(N)cc3)nc2n1C)c1ncc(C(=O)NO)cn1 [PM, Purinostat mesylate]",Median survival (day),[1]; PM for Injection 10 mg/kg,30^bei day
same,Median survival (day),[1]; PM for Injection 20 mg/kg,30 ^bei day
same,apoptotic SU-DHL-6 cells,[2]; 3 nM,14.99%
same,apoptotic SU-DHL-6 cells,[2]; 6 nM,55.2%
same,expression of Ki-67 in tumour tissue,[3],decreased
same,IC50,[4],1.88 nM
same,expression of Ac-H4 in tumour tissue,[5],increased
same,expression of γH2AX in tumour tissue,[6],increased
same,Body weight (g) X ± SD Begin,"[7]; mouse, in vivo, iv, 2.5 mg/kg",22.0 ± 0.3 g
same,Number End/begin,"[7]; mouse, in vivo, iv, 2.5 mg/kg",7/7
same,RTV,"[7]; mouse, in vivo, iv, 2.5 mg/kg",14.21^begkmp
same,Tumour volume (mm^3) X ± SD Begin,"[7]; mouse, in vivo, iv, 2.5 mg/kg",140.3 ± 23.7 mm^3
same,Tumour volume (mm^3) X ± SD End,"[7]; mouse, in vivo, iv, 2.5 mg/kg",1970.1 ± 638.3 mm^3
same,Tumour volume T/C%,"[7]; mouse, in vivo, iv, 2.5 mg/kg",54.53%
same,Tumour weight (g) X ± SD,"[7]; mouse, in vivo, iv, 2.5 mg/kg",2.10 ± 0.98^cekmp g
same,Tumour weight Inhibition (%),"[7]; mouse, in vivo, iv, 2.5 mg/kg",57.35%
same,Body weight (g) X ± SD Begin,"[7]; mouse, in vivo, iv, 5 mg/kg",22.3 ± 0.5 g
same,Number End/begin,"[7]; mouse, in vivo, iv, 5 mg/kg",7/7
same,RTV,"[7]; mouse, in vivo, iv, 5 mg/kg",8.26^cfiloq
same,Tumour volume (mm^3) X ± SD Begin,"[7]; mouse, in vivo, iv, 5 mg/kg",146.2 ± 26.5 mm^3
same,Tumour volume (mm^3) X ± SD End,"[7]; mouse, in vivo, iv, 5 mg/kg",1150.0 ± 510.6 mm^3
same,Tumour volume T/C%,"[7]; mouse, in vivo, iv, 5 mg/kg",31.69%
same,Tumour weight (g) X ± SD,"[7]; mouse, in vivo, iv, 5 mg/kg",1.39 ± 0.47^cfhlnr g
same,Tumour weight Inhibition (%),"[7]; mouse, in vivo, iv, 5 mg/kg",71.80%
same,Body weight (g) X ± SD Begin,"[7]; mouse, in vivo, iv, 10 mg/kg",22.3 ± 0.5 g
same,Number End/begin,"[7]; mouse, in vivo, iv, 10 mg/kg",7/7
same,RTV,"[7]; mouse, in vivo, iv, 10 mg/kg",7.39 ^cfiloq
same,Tumour volume (mm^3) X ± SD Begin,"[7]; mouse, in vivo, iv, 10 mg/kg",150.9 ± 32.6 mm^3
same,Tumour volume (mm^3) X ± SD End,"[7]; mouse, in vivo, iv, 10 mg/kg",1084.2 ± 502.8 mm^3
same,Tumour volume T/C%,"[7]; mouse, in vivo, iv, 10 mg/kg",28.37%
same,Tumour weight (g) X ± SD,"[7]; mouse, in vivo, iv, 10 mg/kg",0.90 ± 0.43^cfilor g
same,Tumour weight Inhibition (%),"[7]; mouse, in vivo, iv, 10 mg/kg",81.67%
same,Body weight (g) X ± SD Begin,"[7]; mouse, in vivo, iv, 20 mg/kg",22.2 ± 0.3 g
same,Number End/begin,"[7]; mouse, in vivo, iv, 20 mg/kg",7/7
same,RTV,"[7]; mouse, in vivo, iv, 20 mg/kg",4.31^cfilor
same,Tumour volume (mm^3) X ± SD Begin,"[7]; mouse, in vivo, iv, 20 mg/kg",158.9 ± 22.6 mm^3
same,Tumour volume (mm^3) X ± SD End,"[7]; mouse, in vivo, iv, 20 mg/kg",664.3 ± 190.7 mm^3
same,Tumour volume T/C%,"[7]; mouse, in vivo, iv, 20 mg/kg",16.53%
same,Tumour weight (g) X ± SD,"[7]; mouse, in vivo, iv, 20 mg/kg",0.73 ± 0.28 ^cfilor g
same,Tumour weight Inhibition (%),"[7]; mouse, in vivo, iv, 20 mg/kg",85.20%
same,CL,[8]; p.o.,7280 ± 3290.7 mL/min/kg
same,Tmax,"[8]; both sexes, rat, plasma, iv",4.67 min
same,clearance,"[8]; both sexes, rat, plasma, iv",225 mL/min/kg
same,half-life,"[8]; both sexes, rat, plasma, iv",20.4 ± 19.7 min
same,Tmax,"[8]; both sexes, rat, plasma, po",5.67 min
same,half-life,"[8]; both sexes, rat, plasma, po",97.2 ± 41.5 min
same,AUC,[8]; [11],837 ± 277 ng·h/mL
same,Cmax,[8]; [11],3140 ± 1320 ng/mL
same,AUC,[8]; [12],56.2 ± 24.6 ng·h/mL
same,Cmax,[8]; [12],49.3 ± 26.4 ng/mL
same,bioavailability,"[8]; both sexes, rat, plasma, oral versus intravenous, read-out: calculated bioavailability",6.71%
same,Number End/begin,[9]; i.v. 10 mg/kg (PM/HP-β-CD),8/8
same,RTV,[9]; i.v. 10 mg/kg (PM/HP-β-CD),6.84^cfi
same,Tumor Weight (g) X ±SD,[9]; i.v. 10 mg/kg (PM/HP-β-CD),1.51±0.49^cfi g
same,Tumor Weight Inhibition (%),[9]; i.v. 10 mg/kg (PM/HP-β-CD),69.96%
same,Tumor volume T/C%,[9]; i.v. 10 mg/kg (PM/HP-β-CD),30.87%
same,Body weight (g) X ± SD Begin,[9]; i.v. 10 mg/kg (PM/HP-β-CD),22.6 ± 1.7 g
same,Tumor volume (mm^3) X ±SD Begin,[9]; i.v. 10 mg/kg (PM/HP-β-CD),194.6±26.1 mm^3
same,Body Weight (g) X ±SD End,[9]; i.v. 10 mg/kg (PM/HP-β-CD),24.9 ± 1.9 g
same,Tumor volume (mm^3) X ±SD End,[9]; i.v. 10 mg/kg (PM/HP-β-CD),1321.9±317.2 mm^3
same,animal status / deaths,[9]; oral group,one of the PM oral groups died
same,Number End/begin,[9]; p.o. 10 mg/kg (PM suspension),7/8
same,RTV,[9]; p.o. 10 mg/kg (PM suspension),16.71^a
same,Tumor Weight (g) X ±SD,[9]; p.o. 10 mg/kg (PM suspension),4.57 ± 0.99 g
same,Tumor Weight Inhibition (%),[9]; p.o. 10 mg/kg (PM suspension),9.16%
same,Tumor volume T/C%,[9]; p.o. 10 mg/kg (PM suspension),75.46%
same,Body weight (g) X ± SD Begin,[9]; p.o. 10 mg/kg (PM suspension),21.6 ± 1.2 g
same,Tumor volume (mm^3) X ±SD Begin,[9]; p.o. 10 mg/kg (PM suspension),199.5±22.5 mm^3
same,Body Weight (g) X ±SD End,[9]; p.o. 10 mg/kg (PM suspension),24.9 ± 3.0 g
same,Tumor volume (mm^3) X ±SD End,[9]; p.o. 10 mg/kg (PM suspension),3300.6±715.1 mm^3
same,animal status / deaths,[9]; venous group,did not have animals in abnormal status
same,Gibbs free energy,[10],-5.055 kcal/mol
"Rituximab [RTX, reference compound]",RTV,[7]; [13],24.16
same,Tumour volume T/C%,[7]; [13],92.71%
same,Tumour weight (g) X ± SD,[7]; [13],3.47 ± 1.07^ad g
same,Tumour weight Inhibition (%),[7]; [13],29.47%
same,Body weight (g) X ± SD Begin,[7]; [14],22.4 ± 0.4 g
same,Tumour volume (mm^3) X ± SD Begin,[7]; [14],153.7 ± 33.1 mm^3
same,Body Weight (g) X ±SD End,[7]; [15],25.1 ± 1.0 g
same,Tumour volume (mm^3) X ± SD End,[7]; [15],3505.3 ± 917.1 mm^3
same,Number End/begin,"[7]; positive control groups, dose column – (RTX 10 mg/kg), regimens Table 2, 14 days",7/7

# Reference: publication PMC8903780, “Therapeutic efficacy of an injectable formulation of purinostat mesylate in SU-DHL-6 tumour model” (Annals of Medicine, 2022)
